The source of these data is patent US5371099A, “Phenyl carboxamide isoxazoles” (Roussel-Uclaf, priority 1992, dated 1994).

Each structure is given as a SMILES string.

The test system of data set [1] is Carrageenan rat paw oedema. The data set can be described thus: Test 1: Carrageenan rat paw oedema (PO-R). It counts as in vivo, rat (male CFHB). Particulars: 3 h; for inhibition in vivo at 50 mg/kg: 50 mg/kg p.o.; for inhibition in vivo at 10 mg/kg: 10 mg/kg p.o. How it is done: Carrageenan rat paw oedema (PO-R)
One hour after the oral administration of the test compounds or control vehicle to groups of 6 to 12 male CFHB rats, weighing 160-180 g, 1 mg of carrageenan dissolved in 0.2 ml of saline was injected into the right hind foot pad. Contralateral paws received control saline injections. Paw oedema responses were assessed three hours later.
(§1) Doses are given in units of mg/kg p.o.

Data set [2] has as its system Delayed-type hypersensitivity mouse paw oedema. Kind of data set: Test 2: Delayed-type hypersensitivity mouse paw oedema (DTH-M). It counts as in vivo, mouse (male CD-1). Particulars: po, 24 h; for inhibition in vivo at 100 mg/kg: 100 mg/kg p.o. How it is done:
Delayed-type hypersensitivity mouse paw oedema (DTH-M)
Groups of 8 to 10 mice, male CD-1 weighing 25-30 g were sensitized by the subcutaneous injection of 1 mg of methylated bovine serum albumin (MBSA) in 0.2 ml volumes of saline/Freund's complete adjuvant (FCA) emulsion. Negative control groups received injections of saline/FCA emulsion. DTH paw oedema responses were assessed twenty-four hours after the right hind foot pad challenge with 0.1 mg of MBSA in 0.05 ml volumes of saline on day seven after sensitization. Contralateral paws received control saline injections. The test compounds or control vehicles were orally administered daily on days four, five, six and twice on day seven, one hour before and six hours after MBSA challenge.
as §1

In data set [3] the test system is Delayed-type hypersensitivity rat paw oedema. Kind of data set: Test 3: Delayed-type hypersensitivity rat paw oedema (DTH-R).
Data set [4] is described as follows: Pharmacokinetic comparison, plasma concentrations of parent compound and active metabolite in mice. The data set is classed as in vivo. Particulars: 30 mg/kg orally. As to the method: A pharmacokinetic comparison was made between the compound of Example 8 in which R5 is methyl and the corresponding known compound in which R5 is hydrogen. Each compound was administered orally to mice at a dose of 30 mg/kg and plasma concentrations of the parent compound and the corresponding active metabolite were determined at various time points after administration.

Where [5] appears, read: Rattus norvegicus, po, 24 h, read-out: % Inhibition (Test 3, DTH-R).

Consider `Cc1onc(C(=O)O)c1C(=O)Nc1ccc([N+](=O)[O-])cc1` [Example 1, 5-methyl-4-[N-(4-nitrophenyl)]carbamoyl-3-isoxazolecarboxylic acid], for which the inhibition in vivo at 50 mg/kg in data set [1] is -2%; in data set [3] (setting [5]) it was 28%. Moreover, the inhibition in vivo at 100 mg/kg in data set [2] was determined as 41%.

In the case of `Cc1onc(C(=O)O)c1C(=O)Nc1ccc(C#N)cc1` [Example 2, 4-[N-(4-cyanophenyl)]carbamoyl-5-methyl-3-isoxazolecarboxylic acid], the results for the inhibition in vivo at 50 mg/kg in data set [1] and in data set [3] (setting [5]) were -25% and -47%, respectively. For the same compound, the inhibition in vivo at 100 mg/kg in data set [2] came out at 27%.

Consider `Cc1cc(NC(=O)c2c(C(=O)O)noc2C)ccc1C(F)(F)F` [Example 5, 5-methyl-4-[N-(3-methyl-4-trifluoromethyl)phenyl]carbamoyl-3-isoxazolecarboxylic acid], for which the inhibition in vivo at 50 mg/kg in data set [1] was 18%; in data set [3] (setting [5]) it was 95%. In addition, the inhibition in vivo at 100 mg/kg in data set [2] stood at 44%. For the same compound, the inhibition in vivo at 10 mg/kg in data set [3] (setting [5]) amounted to 44%.

Turning to `O=C(O)c1noc(C2CC2)c1C(=O)Nc1ccc(SC(F)(F)F)cc1` [Example 12, 5-cyclopropyl-4-[N-(4-trifluoromethylthio)phenyl]carbamoyl-3-isoxazolecarboxylic acid], the inhibition in vivo at 10 mg/kg in data set [1] came out at 11%; in data set [3] (setting [5]) it was 75%. In addition, in data set [2], the inhibition in vivo at 100 mg/kg was determined as 36%.

For the compound `CCOC(=O)c1noc(C)c1C(=O)Nc1ccc(C(F)(F)F)c(C)c1` [Example 18, Ethyl 5-methyl-4-[N-(3-methyl-4-trifluoromethyl)phenyl]carbamoyl-3-isoxazolecarboxylate], the inhibition in vivo at 50 mg/kg in data set [1] was found to be 23%; in data set [3] (setting [5]) it was 50%. Further, the inhibition in vivo at 100 mg/kg in data set [2] worked out at 3%.

`Cc1cc(NC(=O)c2c(C(=O)O)noc2C2CC2)ccc1OC(F)(F)F` [Example 13, 5-cyclopropyl-4-[N-(3-methyl-4-trifluoromethoxy)phenyl]carbamoyl-3-isoxazolecarboxylic acid]: the inhibition in vivo at 10 mg/kg in data set [1] was determined as 5%; in data set [3] (setting [5]) it was 47%. The inhibition in vivo at 100 mg/kg in data set [2] was determined as 52%.

For the compound `Cc1cc(NC(=O)c2c(C(=O)O)noc2C2CC2)ccc1C(F)(F)F` [Example 10, 5-cyclopropyl-4-[N-(3-methyl-4-trifluoromethyl)phenyl]carbamoyl-3-isoxazolecarboxylic acid], the results for the inhibition in vivo at 50 mg/kg in data set [1] and in data set [3] (setting [5]) were 5% and 73%, respectively. In addition, in data set [2], the inhibition in vivo at 100 mg/kg was determined as 12%.

For `O=C(O)c1noc(C2CC2)c1C(=O)Nc1ccc(OC(F)(F)F)cc1` [Example 11], the inhibition in vivo at 3 mg/kg in data set [1] (3 mg/kg p.o.) was -2%; in data set [3] (setting [5]), 65%. Also, the inhibition in vivo at 30 mg/kg in data set [2] (30 mg/kg p.o.) is 37%. The inhibition in vivo at 100 mg/kg in data set [2] came to 65%. Moreover, in data set [3] (50 mg/kg p.o.), the “toxicity printed in place of % Inhibition (Test 3, DTH-R)” value was “Toxic”. Further, the inhibition in vivo at 10 mg/kg in data set [3] (setting [5]) was determined as 95%.

As for `O=C(O)c1noc(C2CC2)c1C(=O)Nc1ccc(C(F)(F)F)cc1` [Example 9, 5-cyclopropyl-4-[N-(4-trifluoromethyl)phenyl]carbamoyl-3-isoxazolecarboxylic acid], in data set [1], the inhibition in vivo at 10 mg/kg was -24%. The inhibition in vivo at 100 mg/kg in data set [2] amounted to 72%. The “pharmacokinetics compared with known compound in which R5 is hydrogen” value in data set [4] (effect of methyl substituent) is listed as “improved pharmacokinetics”. In data set [3] (setting [5]), the inhibition in vivo at 10 mg/kg worked out at 45% and the inhibition in vivo at 50 mg/kg was 86%.

`Cc1cc(NC(=O)c2c(C(=O)O)noc2C)ccc1OC(F)(F)F` [Example 8, 5-methyl-4-[N-(3-methyl-4-trifluoromethoxy)phenyl]carbamoyl-3-isoxazolecarboxylic acid]: the inhibition in vivo at 10 mg/kg in data set [1] was determined as 16%. Besides, the inhibition in vivo at 100 mg/kg in data set [2] came to 48%. For the same compound, the “detectability of the active metabolite 24 hours after administration” value in data set [4] (plasma, 24 hours) is reported as “no metabolite detectable”. Further, in data set [3] (setting [5]), the inhibition in vivo at 10 mg/kg was determined as 34% and the inhibition in vivo at 50 mg/kg came to 79%.

For `Cc1onc(C(=O)O)c1C(=O)Nc1ccc(SC(F)(F)F)cc1` [Example 7, 5-methyl-4-[N-(4-trifluoromethylthio)phenyl]carbamoyl-3-isoxazolecarboxylicacid], the inhibition in vivo at 50 mg/kg in data set [1] came out at 1%. For the same compound, the inhibition in vivo at 100 mg/kg in data set [2] amounted to 14%. Besides, in data set [3] (setting [5]), the inhibition in vivo at 10 mg/kg was 42% and the inhibition in vivo at 50 mg/kg came out at 73%.

As to `Cc1onc(C(=O)O)c1C(=O)Nc1ccc(OC(F)(F)F)cc1` [known compound, reference compound], the “detectability of the active metabolite at 72 hours after administration” value in data set [4] (plasma, 72 hours) is listed as “still being detectable”.

On to `Cc1cc(NC(=O)c2c(C(=O)O)noc2C)ccc1Cl` [Example 4, 4-[N-(4-chloro-3-methyl)phenyl]carbamoyl-5-methyl-3-isoxazolecarboxylic acid], for which the values for the inhibition in vivo at 50 mg/kg in data set [1] and in data set [3] (setting [5]) were -10% and 6%, respectively. Also, the inhibition in vivo at 100 mg/kg in data set [2] was determined as 24%.

On to `Cc1cc(NC(=O)c2c(C(=O)O)noc2C)ccc1C#N` [Example 6, 4-[N-(4-cyano-3-methyl)phenyl]carbamoyl-5-methyl-3-isoxazolecarboxylic acid], for which the values for the inhibition in vivo at 50 mg/kg in data set [1] and in data set [3] (setting [5]) were 5% and 25%, respectively. Also, in data set [2], the inhibition in vivo at 100 mg/kg turned out to be 5%.

As to `Cc1cc(NC(=O)c2c(C(=O)O)noc2C)ccc1Br` [Example 3, 4-[N-(4-bromo-3-methyl)phenyl]carbamoyl-5-methyl-3-isoxazolecarboxylic acid], the inhibition in vivo at 50 mg/kg was -10% in data set [1] and -4% in data set [3] (setting [5]). Moreover, the inhibition in vivo at 100 mg/kg in data set [2] amounted to 35%.
